Assay results published in patent US20040121307A1, “Early detection of cellular differentiation using optophoresis” (Genoptix, Inc, priority 2002, published 2004).

Key:
U937 cells [1] = test: Experiment 4: effect of camptothecin, escape velocity; assay type: cell-based; settings: for escape velocity, Average: 0.04 μg/ml camptothecin
Experimental: The objective of this experiment is to test the effects of camptothecin on the escape velocities of U937 cells. Camptothecin inhibits DNA topoisomerase I and induces apoptosis. A control and three concentrations of camptothecin were tested: […]. After adding the camptothecin, the flasks are incubated at 37° C. 5% CO2.
At the timepoints of 4 hours and 6 hours, 200 μl of cells are spun for 5 minutes at 5000 rpm. The cells are then resuspended in […] PBS/1% BSA and […] trypan blue.
Optophoretic techniques have been investigated for their potential to detect the early onset of apoptosis in mammalian cells. U.S. patent application Ser. No. 10,240,611, for example, discloses multiple experiments in which U937 cells were treated with camptothecin and subsequently monitored Optophoretically using measured escape velocities. In one experiment, the escape velocity of the camptothecin-treated cells were measured at 4 and 6 hours after treatment. Noticeable changes in escape velocity were seen as early as 4 hours after treatment (see, e.g., FIG. 34). In that experiment, U937 cells were treated with 4 μg/ml of camptothecin and resuspended in PBS/1% BSA. Escape velocity measurements were taken after 4 and 6 hours. Table 18, reproduced below, includes the results of the escape velocity measurements for the test cells as well as the controls.

U937 cells [2] = test: ApoAlert Annexin V assay (FACS); assay type: cell-based; settings: 4 μg/ml camptothecin
Experimental: Still other assays provide earlier indications of the onset of apoptosis. For example, commercially available assays, such as the ApoAlert Annexin V assay (available from CLONETECH) are able to detect changes in the plasma membrane by using a FITC conjugate of annexin V. The ApoAlert Annexin V assay is based on the observation that within about 6-10 hours after the onset of apoptosis, most cell types translocate phosphatidylserine (PS) from the inner face of the plasma membrane to the exterior of the cell surface. Once the PS is exposed on the exterior of the cell surface, the presence of PS can be detected using a FITC conjugate of annexin V. Fluorescence microscopy and flow cytometry can then be used to detect the binding of the FITC conjugate to the […]. While this assay does provide for relatively early detection of apoptotic events, the assay requires labeled annexin V markers as well as subsequent analysis by fluorescent microscopy or flow cytometry.
Another experiment using U937 cells treated with 4 μg/ml camptothecin was also carried out. In this experiment, however, the cells were subject to analysis using an annexin V assay. The assay was performed using the ApoAlert Annexin V Apoptosis Kit (available from Clonetech, catalog no. K2025-1). […] Significant annexin V binding is seen later in the 3 and 4 hour time points. […]

[3] = test system: activated caspases in U937 cells; test: Homogeneous Caspases Assay, Fluorimetric; assay type: cell-based; settings: 4 μg/ml camptothecin, 300 cells/well
Text: Another assay that provides for even earlier detection of apoptotic events are assays that detect caspase activation. For example, the Homogeneous Caspases Assay, Fluorimetric (available from Roche, catalog no. 3005372), is able to detect caspase activation. […] The kit uses the substrate DEVD-Rhodamine 110 which is cleaved by activated caspases. When DEVD-Rhodamine 110 is cleaved, the released Rhodamine-110 molecule fluoresces upon excitation. By comparing the fluorescence from an apoptotic sample and an uninduced control, the increase in caspase activity can be quantified. While caspase assays do have the ability to detect relatively early apoptotic events, the assays require fluorometric enzyme substrates. Yet another experiment using U937 cells treated with 4 μg/ml camptothecin was carried out. In this experiment, the cells were subject to analysis using a caspase assay (Homogeneous Caspases Assay, Fluorimetric-available from Roche, catalog no. 3005372). The caspase assay is a fluorometric assay carried out in 96-well plates. […] Upon cleavage of the substrate by activated caspases, fluorescence of the released Rhodamine 110 is measured. […] FIG. 102 illustrates a graph of the relative fluorescence units (RFU) as a function of incubation times (hours) for the control (blank) as well as the camptothecin-treated cells.

CEM/C2 cell line = settings: cell lines obtained from ATCC; cited from earlier work
K562 Cells [4] = test: Escape velocities of different cell types (1064 system, CYTOP coated coverslips); assay type: cell-based; settings: 26 Hr. Taxol Treatment
Text: Certain of the data reported herein were generated with the following setup. Optical gradient fields were generated using a Michelson interferometer and either a 150 mW, 812 nm laser (812 system) or a 2.5 W, 1064 nm laser (1064 system). The 812 system used a 100× (1.25 NA) oil immersion lens to focus the fringe pattern and to visualize the sample. The 1064 system used a 20× objective to focus the fringes and a 60× objective to visualize the sample. In general the sample cell was a coated microscope slide and/or coverslip that was sealed with Vaseline. Coverslip spacers controlled the height of the cell at approximately 150 micrometers.
Escape velocities were measured using a gradient field generated by the 1064 system on CYTOP coated coverslips.

K562 Cells [5] = test: Experiment 7: time and concentration dependence of paciltaxel, escape velocity; assay type: cell-based; parameters: escape velocity, Ave.: unit not given here
Experimental: In this experiment, the effect of time and concentration of paciltaxel was tested using K562 cells. Paciltaxel is a chemotherapeutic agent whose mechanism of action is the […] and the subsequent disruption of the cytoskeleton in cells. The timepoints tested were 4 hours, 23 hours, 30 hours and 47 hours. The concentrations of paciltaxel used in the experiment were 10 nM, 1 nM, 100 pM, and 10 pM. At each timepoint, 300 μl of cells were removed from each sample and centrifuged for 5 minutes at 5,000 rpm. The cells were then resuspended in PBS/1% BSA and trypan blue.

Compound: CC[C@@]1(O)C(=O)OCc2c1cc1n(c2=O)Cc2cc3ccccc3nc2-1 [camptothecin]
- shift in escape velocity over time (U937 cells [1]; 40 ng/ml camptothecin, 4 and 6 hours (FIG. 34)): shift to lower escape velocities over time
- escape velocity, Average (U937 cells [1]; 4 hours): 10.16 μm/sec
- escape velocity, Average (U937 cells [1]; 6 hours): 9.52 μm/sec
- time at which the annexin V assay begins to detect the onset of apoptosis (U937 cells [2]): 2 h
- time after administration at which caspase activity is detected [3]: > 4 h
- fold less sensitive than parental CCRF-CEM (CEM/C2 cell line): 970 fold

Compound: CC(=O)O[C@H]1C(=O)[C@@]2(C)[C@H]([C@H](OC(=O)c3ccccc3)[C@]3(O)C[C@H](OC(=O)[C@H](O)[C@@H](NC(=O)c4ccccc4)c4ccccc4)C(C)=C1C3(C)C)[C@]1(OC(C)=O)CO[C@@H]1C[C@@H]2O [paciltaxel]
- Escape Velocity (K562 Cells [4]): 8.2 +/− 0.4 um/sec.
- escape velocity, Ave. (K562 Cells [5]; 10 pM paciltaxel, 4 Hours): 15.7
- escape velocity, Ave. (K562 Cells [5]; 10 pM paciltaxel, 23 Hours): 15.7
- escape velocity, Ave. (K562 Cells [5]; 10 pM paciltaxel, 30 Hours): 16.0
- escape velocity, Ave. (K562 Cells [5]; 10 pM paciltaxel, 47 Hours): 16.2
- optophoretic effect on cells (K562 Cells [5]; 10 pM to 10 nM, 4 to 47 hours): both a time and dose dependent optophoretic effect
- escape velocity, Ave. (K562 Cells [5]; 100 pM paciltaxel, 4 Hours): 15.9
- escape velocity, Ave. (K562 Cells [5]; 100 pM paciltaxel, 23 Hours): 17.1
- escape velocity, Ave. (K562 Cells [5]; 100 pM paciltaxel, 30 Hours): 17.6
- escape velocity, Ave. (K562 Cells [5]; 100 pM paciltaxel, 47 Hours): 17.0
- escape velocity, Ave. (K562 Cells [5]; 1 nM paciltaxel, 4 Hours): 15.6
- escape velocity, Ave. (K562 Cells [5]; 1 nM paciltaxel, 23 Hours): 16.9
- escape velocity, Ave. (K562 Cells [5]; 1 nM paciltaxel, 30 Hours): 16.9
- escape velocity, Ave. (K562 Cells [5]; 1 nM paciltaxel, 47 Hours): 16.7
- escape velocity, Ave. (K562 Cells [5]; 10 nM paciltaxel, 4 Hours): 15.3
- escape velocity, Ave. (K562 Cells [5]; 10 nM paciltaxel, 23 Hours): 16.9
- escape velocity, Ave. (K562 Cells [5]; 10 nM paciltaxel, 30 Hours): 17.4
- escape velocity, Ave. (K562 Cells [5]; 10 nM paciltaxel, 47 Hours): 17.1
